# Several values for one entry are separate records, joined by “and”; a condition that tells them apart may be missing. Equal values may be shown once. No end group written: not given here. *: point of attachment. Palmitoyl = CCCCCCCCCCCCCCCC(=O)*
# System: Antioxidant Response Element (ARE)
# Test: ARE Assay (ARE-32 luciferase reporter cell line)
# Format: cell-based
# Excerpt: This method provides a way to quantitate ARE activation using the ARE-32 reporter cell line available from CXR Biosciences. The ARE-32 cell line is a stable MCF7 cell line containing pGL8x-ARE (8 copies of the rat GST ARE linked to the luciferase gene) and pCDNA3.1, which contains the neomycin selectable marker. A detailed description of the ARE-32 cell line and its development and use can be found in “Generation of a Stable Antioxidant Response Element-Driven Reporter Gene Cell Line and Its Use to Show Redox-Dependent Activation of Nrf2 by Cancer Chemotherapeutic Agents.” Cancer Res 2006; 66(22): 10983-94. A general schematic for how an ARE reporter assay operates to identify agents that promote transcription off the ARE is described in U.S. Publication No. 2011/0262570.
# The ARE Assay uses expanded and cryopreserved passaged stocks. The cells are expanded over 4-5 days in culture flasks and passaged every 3-4 days, when cells are approximately 80% confluent. When cells are >70% confluent or ready to seed into 96 well plates, the cells are trypsinized, seeded and grown in 96-well plates. After growing for 1 day in 96-well plates, the media is replaced with fresh treatment media (phenol red free, no FBS) and cells are treated with compounds and incubated overnight (24 hours). Post treatment, cells are rinsed with 1×PBS, lysed and receive the luciferase kit reagent and luminescence is measured.
# Frozen AREC32 cells (frozen in 90% FBS and 10% DMSO) are quickly thawed and placed in a 50 ml conical tube with 25 ml plating media. Centrifuge at 1500-2000 RPM for 5 minutes. Remove media without disturbing cell pellet. Re-suspend cells in 12 ml media and add to T-75 tissue culture flask. Cells should be at >80% confluency in 4-5 days and can be split 1:3 into T-150 flasks to grow cells for seeding plates if more cells are needed.
# Cells are maintained and plated in 96-well plates with plating media. Subculture (passage cells) every 3-4 days or when ˜75-80% confluent. To passage cells, aspirate media from flask and add 6 ml 0.25% trypsin. Tilt flask in all directions to distribute the trypsin over the bottom of the flask and place in incubator. After 2-3 minutes observe cells under microscope to see if detached. If cells have not detached completely place in incubator for an additional 2-3 minutes. Once detached, add 6 ml maintenance media to neutralize trypsin and pipet into centrifuge tube. Centrifuge at 1200 RPM for 5 minutes. Remove media without disturbing cell pellet. Re-suspend pellet in 12 ml maintenance media and add to flask. If splitting or detaching cells from a T-150 flask double all volumes and follow same procedures.
# Aspirate media from flask and add appropriate volume of 0.25% trypsin depending on size of flask (6 ml for T-75 and 12 ml for T-150 flask). Swirl flask to distribute trypsin on bottom of flask and return to incubator for 2-3 minutes. Observe cells under microscope. If cells have not detached completely place in incubator for an additional 2-3 minutes. Once cells are detached add DMEM equal to the volume of trypsin, mix gently and place in centrifuge tube. Centrifuge at […] for 5 minutes. Aspirate media without disturbing cell pellet. Re-suspend pellet in 10 ml DMEM. Dilute the cells 1:5 using 50 μl cells+200 μl DMEM. Use 20 μl of this dilution and 20 μl 0.4% trypan blue. Mix and add 10 μl/chamber to disposable hemocytometer and insert into Countess II Instrument. Non-viable cells will be blue, viable cells will be unstained. Cell seeding density may vary from ˜10,000 cells/well or more depending on cell passage growth. Cell density should be approx. 70-80% on day of treatment/dosing. […] Media must be free of phenol red.
# Tert-Butylhydroquinone (tBHQ) (Aldrich, Cat #11,294-1). Prepare 100 mM stock (1M=166.21 mg/ml; 100 mM=16.62 mg/ml). Dilute to 750 μM (1:133) using 30 μl of 100 mM tBHQ and […] treatment media. 2 μl of positive control should yield a final concentration of 7.5 μM in the test well. […]
compound,measurement,setting,value
"NC(=O)c1cccnc1 [N, niacinamide, reference compound]",Average Net Luminescence N,N 1 ppm alone,8
same,Average Net Luminescence N,N 10 ppm alone,12
same,Average Net Luminescence N,N 50 ppm alone,45
same,Average Net Luminescence N,N 500 ppm alone,53
same,Average Net Luminescence N,"Table 3, N 500 ppm alone",45
palmitoyl pentapeptide-4 (Palmitoyl-KTTKS) [Pal-KTTKS],Average Net Luminescence Pal-kttks,Pal-KTTKS 1 ppm alone,24.3
same,Average Net Luminescence Pal-kttks,"Table 3, Pal-kttks 1 ppm alone",21
acetyl tetrapeptide-11 (Ac-PPYL),Average Net Luminescence Ac-PPYL,Ac-PPYL 0.05 ppm alone,12 and 19.4 and 20
same,Average Net Luminescence Ac-PPYL,Ac-PPYL 0.1 ppm alone,22 and 15.7
same,Average Net Luminescence Ac-PPYL,Ac-PPYL 0.5 ppm alone,14.7 and 26
same,Average Net Luminescence Ac-PPYL,Ac-PPYL 1 ppm alone,56 and 51
same,Average Net Luminescence Ac-PPYL,Ac-PPYL 2 ppm alone,64 and 61
same,Average Net Luminescence Ac-PPYL,"Table 3, Ac-ppyl 2 ppm alone",57

# Reference: patent publication US11771637B2, “Skin care composition and method of using the same” (The Procter & Gamble Company, priority 2021, dated 2023)
